The test system of series [1] is LNCaP and PC-3 PCa cell lines. Also on record: method as in PMID 18786604, PMID 23132791. Conditions: introduction; cited from earlier work.
On the set-up of series [2]: method as in PMID 18786604, PMID 23132791. Conditions: introduction; cited from earlier work.
Series [3] can be described thus: Compound toxicity, MTS/Alamar Blue proliferation assay, PC-3. The class given is cell-based. Conditions: human, PC-3 (AR-) prostate cancer cells; PC3 (AR-); read-out: Cytotoxicity IC50 (µM) PC3 (AR-). How it is done:
(§1) AR+ (LNCaP) and AR- (PC-3) PCa cell lines were used as standard lines to determine the cytotoxicity of HSD3 inhibitor compounds. Toxicity was assessed over 96 h in 96 well plates using the standard MTS/Alamar Blue proliferation assay and over longer durations by cell counting methodologies.

The next series concerns the target T1, 17β-HSD3 (Homo sapiens, UniProt P37058).
T1 construct: expressed in transfected cells; host or cells: human 293-EBNA cells, stably transfected
T1 sequence (P37058 1-310): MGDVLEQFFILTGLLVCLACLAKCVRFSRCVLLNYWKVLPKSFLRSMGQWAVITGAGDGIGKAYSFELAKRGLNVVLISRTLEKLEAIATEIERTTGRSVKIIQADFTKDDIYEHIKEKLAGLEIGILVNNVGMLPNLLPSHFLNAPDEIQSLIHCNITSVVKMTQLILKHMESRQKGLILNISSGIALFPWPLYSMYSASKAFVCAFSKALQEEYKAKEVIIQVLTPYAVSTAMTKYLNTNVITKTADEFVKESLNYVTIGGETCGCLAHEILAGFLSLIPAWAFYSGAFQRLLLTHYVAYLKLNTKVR
The experiment in a line: Assay for 17β-HSD3 activity (TLC assay) in 293-EBNA cells stably transfected with 17β-HSD3. The series is classed as cell-based. To be noted: for inhibition at 10 µM: 293-EBNA, mean of at least two measurements, typically SD ±5%. How it is done: Human 293-EBNA cells stably transfected with 17β-HSD3 were plated at 50,000 cells/well in 24 well plates in complete growth medium. After 48 h 2–3 nM [^3H]-androstenedione in assay medium (500 mL DMEM medium with 5 mL 100 × L-glutamine and 5 mL 7.5% sodium bicarbonate solution) was added with or without test compound at 1.5 mL/well (triplicate), and the cells incubated at 37 °C. Two hours later 1 mL medium was removed from each well and placed in a 125 × 16 mm glass test tube containing 25 µL of recovery solution (5000 dpm ^14C-testosterone and 25 µg unlabelled testosterone […], and the tubes vortexed at high speed for 2 × 30 s. After the samples had settled into two phases, they were snap-frozen in a dry ice/methanol bath. The upper organic phase was decanted into 75 × 12 mm tubes and evaporated to dryness under an airstream using a sample concentrator (TECHNE) at 40 °C. The samples were resuspended in ether (8 drops, then a further 3), spotted onto ca 60 F254 20 cm × 20 cm TLC plates and separated using a 4:1 v/v dichloromethane: ethyl acetate mobile phase. After drying the plates, the major spots were marked under a UV lamp, cut out and placed in individual scintillation vials containing 0.5 mL methanol. These were then shaken lightly and allowed to stand for 15 min before adding 10 mL of EcoScintA (scintillation fluid) to each tube along with 0.5 mL assay medium and counted in a scintillation spectrometer (Beckman, High Wycombe, Bucks, UK), using a program for duel [^3H/^14C] isotopes. The number of cells/well was then counted using a Coulter10 counter (Beckman). The inhibitory activity of the test compounds was then assessed by calculating the amount of product formed correcting for crossover between isotope counts, recovery, dilution and non-enzymatic degradation fmol/hr/million cells) with and without inhibitor (% inhibition).

For series [4], the target named is T2, 17β-HSD Type 2 (Homo sapiens, UniProt P37059).
T2 sequence (P37059 1-387): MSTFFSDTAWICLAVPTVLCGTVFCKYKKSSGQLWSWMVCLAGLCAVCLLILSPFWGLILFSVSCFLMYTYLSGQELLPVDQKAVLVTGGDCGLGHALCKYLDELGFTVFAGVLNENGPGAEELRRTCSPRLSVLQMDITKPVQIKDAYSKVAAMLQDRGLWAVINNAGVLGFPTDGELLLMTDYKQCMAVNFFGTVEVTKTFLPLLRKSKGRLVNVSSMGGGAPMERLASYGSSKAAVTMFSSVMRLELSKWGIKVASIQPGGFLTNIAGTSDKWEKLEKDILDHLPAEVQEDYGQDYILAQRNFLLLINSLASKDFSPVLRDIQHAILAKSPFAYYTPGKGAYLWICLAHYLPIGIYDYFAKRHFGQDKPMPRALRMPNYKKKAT
The experiment in a line: 17β-HSD2 activity assay in MDA-MB-231 cells (E2 to E1). The class given is cell-based. Also on record: endogenous in cells; host or cells: MDA-MB-231 human breast cancer cells. How it is done: MDA-MB-231 human breast cancer cells in T25 flasks were incubated with 2 nM [^3H]-E2 (41.3 Ci/mmol; PerkinElmer, Beaconsfield, Bucks, UK) in the presence or absence of 10 µM candidate 17β-HSD3 inhibitors. After 3 h at 37 °C, the steroids were isolated from the mixture by extraction with diethyl ether and procedural losses were measured using [^14C]-E1 (5000 dpm; PerkinElmer). Separation of [^3H]-E1 from [^3H]-E2 was achieved using thin layer chromatography, eluting with dichloromethane/ethyl acetate, 4:1 v/v and the amount of [^3H]-E1 produced was calculated from the […] [^3H] counts detected and recovery of [^14C]-E1 (Beckman LS 6000 SC). A positive control was used in this assay (IC50 5.4 μM) to ensure reproducible results were obtained.

Series [5] is described as follows: Compound toxicity, MTS/Alamar Blue proliferation assay, LNCaP. The series is classed as cell-based. Conditions: human, LNCaP (AR+) prostate cancer cells; read-out: Cytotoxicity IC50 (µM) LNCaP (AR+). On the procedure:
as §1
A general note: Alamar Blue is a resazurin reagent that responds to reducing activity.

Series [6] deals with androstenedione-stimulated tumour growth. More on the design: method as in PMID 18786604, PMID 23132791. Conditions: mouse model; cited from earlier work.
Series [7] deals with T2, 17β-HSD Type 2. Conditions: introduction; cited from earlier work.
On the set-up of series [8]: method as in PMID 22512907. To be noted: given subcutaneously to rats; cited from earlier work.
Another series relates to human 17β-HSD3. Also on record: method as in PMID 22512907. Conditions: whole HEK-293 cells over-expressing human 17β-HSD3; cited from earlier work.
Another series addresses T3, 17β-HSD Type 1 (Homo sapiens, UniProt P14061).
T3 construct: endogenous in cells; host or cells: T-47D breast cancer cells
T3 sequence (P14061 1-328): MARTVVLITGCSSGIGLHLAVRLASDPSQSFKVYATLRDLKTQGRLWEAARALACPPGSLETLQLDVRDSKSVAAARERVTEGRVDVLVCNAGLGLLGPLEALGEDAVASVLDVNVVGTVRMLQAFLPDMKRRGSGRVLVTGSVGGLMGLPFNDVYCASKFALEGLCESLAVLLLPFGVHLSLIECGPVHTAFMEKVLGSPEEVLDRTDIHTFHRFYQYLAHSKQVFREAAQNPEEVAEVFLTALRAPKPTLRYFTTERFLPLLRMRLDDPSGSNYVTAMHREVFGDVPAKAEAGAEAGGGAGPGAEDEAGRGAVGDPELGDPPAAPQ
The experiment in a line: 17β-HSD1 activity assay in T-47D breast cancer cells (estrone to estradiol). The class given is cell-based. Conditions: T47D, T-47D cells; for inhibition at 10 µM: tested at 10 μM. How it is done:
The assay is of a similar format to the 17β-HSD Type 3 TLC assay. T-47D breast cancer cells, which express a high ratio of 17β-HSD Type 1 to 17β-HSD Type 2, were used to test the conversion of labelled estrone to estradiol in the presence and absence of the potential inhibitors. The cells were incubated with [^3H]-estrone at a concentration of 2 nM, in the absence or presence of the inhibitors (10 μM). After incubation of the culture for 3 h at 37 °C, the products were isolated and separated by TLC using DCM/ EtOAc (4:1). The amount of estradiol formed was measured and compared to the control cells, where no inhibitor was present. Each assay was carried out in the presence of a positive control (IC50 of 27 nM) to ensure reproducible results were obtained.

[9] abbreviates: TLC assay, 293-EBNA[HSD3] cells, read-out: IC50 (17β-HSD3).

Like-named read-outs stand apart in the source and are kept apart here.

Broadly, the IC50 is the point on the concentration scale where inhibition reaches its midpoint. As usually defined, the inhibition is the drop in the measured response relative to a control, in per cent. Turning to `CC(=O)N1CCCC(Nc2ccccc2Oc2ccc(Cl)cc2)c2ccccc21` (stereo not drawn) [STX2171], in series [1], the cytotoxicity in words result is given as “weakly cytotoxic”. In series [2], the androgenicity entry is on record as “non-androgenic”. Further, the figures for the IC50 at 96 h in series [3] and in [5] were 22 µM and 15.7 µM, respectively. Besides, the IC50 on 17β-HSD3 (setting [9]) was determined as 200 nM. For the same compound, at 17β-HSD Type 2 [4], the inhibition at 10 µM was found to be 20.3%. For the same compound, in [6], the “inhibition of androstenedione-stimulated tumour growth” value was “potent inhibition”. The “selectivity for inhibition of 17β-HSD3 over 17β-HSD2” value at 17β-HSD Type 2 [7] is “selective”.
For `C[C@@H]1CN(S(=O)(=O)c2ccccc2C(F)(F)F)[C@@H](C)CN1[C@@]1(O)CC[C@@]2(C)C(CCC3C2CC[C@]2(C)C(=O)CCC32)C1` (stereo partly drawn) [RM-532-105], the “plasma levels of T and DHT” value in [8] is recorded as “significantly decreased”. In addition, in the series on human 17β-HSD3, the IC50 is 5 nM.
Broadly, the melting point is the temperature, or range, at which the solid turns liquid. Compound `CC(=O)N1CCC(C(=O)Nc2ccccc2CNc2ccccc2Oc2ccc(Cl)cc2)CC1` [Compound 23, 1-Acetyl-piperidine-4-carboxylic acid (2-[2-(4-chloro-phenoxy)-phenylamino]-methyl-phenyl)-amide] showed a melting point of 140 to 143 °C. Also, at 17β-HSD3 (TLC assay), the inhibition at 10 µM was found to be 91%. Also, the IC50 on 17β-HSD3 (setting [9]) was 3900 nM. Moreover, the inhibition at 10 µM on 17β-HSD Type 1 was -2.3%.
`CC(=O)N1Cc2ccccc2CSc2ccccc21` [BMS Dibenzazocine]: the results for the IC50 at 96 h in [3] and in [5] were more than 50 µM and 19.4 µM, respectively. The IC50 on 17β-HSD3 (Table 11, read-out: HSD3 Activity (IC50 nM)) amounted to 8.6 nM.
Regarding `CC(=O)N1CCC(CC(=O)N2CCN(C(c3ccc(Cl)cc3)c3ccc(Cl)cc3)C[C@@H]2C(C)(C)C)CC1` [SCH-451659], the IC50 at 96 h in series [3] worked out at 6.8 µM; in series [5] it was 5.5 µM. In addition, the IC50 on 17β-HSD3 (Table 10, read-out: Inhibition of 17β-HSD Type 3 (IC50 nM)) was determined as 5 nM. In addition, the values for the inhibition at 10 µM at 17β-HSD Type 1 and against 17β-HSD Type 2 [4] were 19.6% and 18.4%, respectively.
On to `CC(=O)Nc1ccccc1CNc1ccccc1Oc1ccc(Cl)cc1` [Compound 1, N-(2-([2-(4-Chloro-phenoxy)-phenylamino]-methyl)-phenyl)-acetamide], for which the melting point lay within 194 to 196 °C. For the same compound, the inhibition at 10 µM against 17β-HSD3 (TLC assay) was determined as 87%. Further, the IC50 at 17β-HSD3 (setting [9]) was 900 nM. For the same compound, the inhibition at 1 µM at 17β-HSD Type 1 (tested at 1 μM) is 1.3%. Further, the inhibition at 10 µM on 17β-HSD Type 2 [4] worked out at 15.9%.
Take `CC(=O)Nc1ccccc1C(C)Nc1ccccc1Oc1ccc(Cl)cc1` (stereo not drawn) [Compound 29, N-(2-(1-[2-(4-Chloro-phenoxy)-phenylamino]-ethyl)-phenyl)-acetamide]: the IC50 at 96 h came out at 18.3 µM in series [3] and 14.6 µM in [5]. For the same compound, the IC50 on 17β-HSD3 (setting [9]) was found to be 76 nM.

Values taken from paper PMC8659031, “Substituted Aryl Benzylamines as Potent and Selective Inhibitors of 17β-Hydroxysteroid Dehydrogenase Type 3” (Molecules, 2021).
